Measurements: publication PMC8834506, “Optimization of Thymidine Kinase-Based Safety Switch for Neural Cell Therapy” (Cells, 2022)
Like-named read-outs stand apart in the source and are kept apart here.

Columns and labels:
[1] = tested on: non-transduced hESC colonies; test: Morphology and size of hESC colonies upon nucleoside treatment; type: cell-based, human
Description: We next investigated the impact of ACV, PCV, and GCV on non-transduced hESC and neuroprogenitors (proliferating ReNcells). […] To further understand the impact of nucleoside analogs on non-transduced cells, we performed γ-H2A.X immunostaining (Figure 6B). There was a graded response, virtually identical in hESC and in neuroprogenitors. […] In addition, we investigated the morphology and size of non-transduced hESC colonies upon nucleoside treatment. […] Taken together, our findings confirm considerable toxicity of GCV, even in the absence of viral TK. Note that this was not the case for PCV despite the fact that it is a potent inducer of cell death in thymidine kinase-expressing cells.
Cells were exposed to 100 µM of the respective nucleoside for 48 h. DNA damage was monitored using γ-H2A.X marker in yellow and nuclei were counterstained with Hoechst. The white box in the first column indicates the area of the zoom for the hESC colonies.

[2] = tested on: sister chromatid exchange; parameters: method as in PMID 10719044; details: at concentrations far below those impairing the proliferative activity; cited from earlier work
[3] = tested on: ReNcells Ubi-SR39h (proliferating); test: ATP-based assay, EC50 in proliferating neural progenitors; type: cell-based; details: Homo sapiens, 96 h GCV exposure
Protocol: We then compared the ability of GCV to kill proliferating NPC that expressed the SR39h thymidine kinase under the control of the ubiquitin (ReNcells Ubi-SR39h) or the Ki67 promoter. (ReNcells Ki67-SR39h) (Figure 4). For this purpose, we first performed a dose response to GCV on undifferentiated NPC. […] We then explored the kinetic of cell death with the suicide enzyme driven either by Ki67 or ubiquitin promoter for different concentrations of GCV. The rapidity of cell death induction but not its final extent was a function of the GCV concentrations. […] This was true for a short-term treatment at 24 h and 48 h, but not at the later time points at 72 h and 96 h (Figure 4D).
Figure 4 EC50 and kinetics of GCV-induced cell death in proliferating and post-mitotic ReNcells. […] Cell viability was measured every 24 h using a bioluminescent ATP-based assay (n = 3). […] Cell viability was measured using an ATP-based assay. […]
Cell culture plate (96 wells plate Corning #3907, Corning, Lonay, Switzerland) were pre-coated with 60 μL per well of Poly-L-ornithine solution (Sigma, Merk, Eysins, Switzerland) at 37 °C for 30 min. […] For EC50 assays, the medium was changed daily for 4 days, then cell viability was assessed using an ATP-based assay. EC50 values for each construct were calculated using a four parameters equation (GraphPad, Prism8, San Diego, CA, USA). […]

Nc1nc(O)c2ncn(COC(CO)CO)c2n1 [GCV, ganciclovir]
Effect on morphology and size of colonies [1]: smaller colonies
Induction of sister chromatid exchange [2]: potent inducer of sister chromatid exchange
EC50 ([3]; 24-point dose response, n = 3, read-out: EC50 of GCV, ReNcell Ki67-SR39h (second line of the picture's table)): 2.1 nM
EC50 ([3]; undifferentiated NPC, read-out: EC50 of GCV): ~2.1 nM
